Experimental data taken from paper PMC10762068, “Selective blockade of Cav1.2 (α1C) versus Cav1.3 (α1D) L-type calcium channels by the black mamba toxin calciseptine” (Nature Communications, 2024).
Entries after “also recorded” stand apart in the source; their conditions may differ. Positions of bridges follow the written chain, without caps; N, C: chain ends. No end group written: not given here.

Columns and labels:
[1] = test system: total ICaL (ICav1.2+ICav1.3) in SAN myocytes from wild-type mice; assay: ICaL, patch clamp, SAN myocytes from wild-type mice; assay type: cell-based, mouse; conditions: for L-type Ca2+ current density: Cas 1 µM alone or + Nife 3 µM, n=8
Description: Hearts from Wild-Type and Cav1.3^−/− mice were removed under general anesthesia consisting of 0.01 mg/g xylazine (2% Rompun; Bayer AG) and 0.1 mg/g ketamine (Imalgène;Merial) and immersed in a pre-warmed (36 °C) Tyrode solution containing (mM): 140 NaCl, 5.4 KCl, 1 MgCl2, 1.8 CaCl2, 5.5 D-glucose, and 5 Hepes (adjusted to pH 7.4 with NaOH). […] SAN tissue was excised and transferred into a low-Ca^2+ solution containing (mM): 140 NaCl, 5.4 KCl, 0.5 MgCl2, 0.2 CaCl2, 1.2 KH2PO4, 50 taurine, 5.5 D-glucose, 1 mg/mL BSA, and 5 Hepes–NaOH (adjusted to pH 6.9 with NaOH) for 5 min. Then, enzymatic digestion was carried out for 20-25 min at 36 °C in the low-Ca^2+ solution containing LiberaseTH Research Grade (0.15 mg/mL; Roche, Mannheim, Germany) and elastase (0.5 mg/mL; Worthington, Lakewood, NJ, USA). Digestion was stopped by washing the SAN in a “Kraftbrühe” (KB) medium containing (mM) 100 K-glutamate, 10 K-aspartate, 25 KCl, 10 KH2PO4, 2 MgSO4, 20 taurine, 5 creatine, 0.5 EGTA, 20 D-glucose, 5 Hepes, and 1 mg/mL BSA (adjusted to pH 7.2 with KOH). Single SAN cells were then dissociated from the SAN tissue by manual agitation using a flame-forged Pasteur’s pipette. To recover the automaticity of the SAN cells, Ca^2+ was gradually reintroduced in the cell’s storage solution to a final concentration of 1.8 mM. SAN cells were then left to rest for 1 h before recordings.
For patch-clamp recordings of SAN myocytes, cells were harvested in custom-made chambers with glass bottoms for cell attachment. Cells were then super-fused with Tyrode’s solution warmed at 36 °C before recording. Action potentials and ionic currents were recorded using an Axon multi-clamp patch-clamp 700B amplifier. Voltage-gated L-type Ca^2+ currents (ICaL) were recorded using standard whole cell patch-clamp configuration. For recording ICaL, we used an extracellular recording solution contained (mM): 135 tetraethylammonium chloride (TEA-Cl), 10 4-aminopyridine (4-AP), 1 MgCl2, 0.03 tetrodotoxin (TTX), 1 g/L Glucose, 2 CaCl2, 10 Hepes, (adjusted to pH = 7.2 with TEAOH). […] Pacemaker activity was recorded by the perforated patch-clamp technique using escin (40 µg/ml). For recording cell automaticity glass pipettes were filled with the intracellular solution contained (mM): 80 K-Aspartate, 50 KCl, 1 MgCl2, 5 HEPES, 2 CaCl2, 5 EGTA, 3 ATP-Na+ salt; pH was adjusted to 7.2 with KOH. Escin was dissolved in sterile H2O and added to the intracellular solution right before each experiment.
In all experiments of cellular electrophysiology, we employed synthetized analog of Cas, commercially available at Latoxan (ID: L8109). The native peptide was purified from the venom of Dendroaspis polylepis purchased from Latoxan, as previoulsly described. The pure peptide was obtained after gel filtration, cation exchange and C18 reversed phase chromatography. Its measured molecular mass (7036.26 Da average) was in accordance with the mass calculated from sequence data (7036.22 Da).

[2] = test system: Cav3.1 T-type; assay: Ca2+ current in HEK-293T cells expressing Cav3.1; assay type: cell-based; conditions: Cas 300 nM (n=13/N=3) and 1 µM (n=10/N=3); holding -80 mV, step -30 mV
Description: (§1) HEK-293T (RRID:CVCL_2737) were obtained from the European Collection of Authenticated Cell Cultures (ECACC 96121229). The identity of HEK-293T has been confirmed by STR profiling and the cells have been eradicated from mycoplasma at ECACC. We routinely tested the cells for the absence of the mycoplasma contamination. Cells were cultivated at 37 °C in DMEM supplemented with GlutaMax, 10% fetal bovine serum and 1% penicillin/streptomycin (Invitrogen, Fisher Scientific, France). […]
(§2) Macroscopic currents in HEK-293T cells were recorded at room temperature using an Axopatch 200B or Multiclamp 700B patchclamp amplifier (Molecular Devices, Sunnyvale CA). […]
(§3) In all experiments of cellular electrophysiology, we employed synthetized analog of Cas, commercially available at Latoxan (ID: L8109). […] Its measured molecular mass (7036.26 Da average) was in accordance with the mass calculated from sequence data (7036.22 Da). […]
(§4) n=10/N=3) channels. Peak current density wa s recorded starting f rom a holding potential of -80mV using an activating voltage step at -30mV for Cav3.1, f ro m a holding potential of -90mV using an activating voltage step at +20mV for Cav2.2 and f rom a holding potential of -80mV using an activating voltage step at 0mV for Cav2.1. Exam ples of recorded traces are reported. […]

[3] = test system: Cav2.1 P/Q type; assay: Ca2+ current in HEK-293T cells expressing Cav2.1; assay type: cell-based; conditions: Cas 300 nM (n=10/N=3) and 1 µM (n=10/N=3); holding -80 mV, step 0 mV
Description: as §1, §2, §3, §4

RICYIHKASLPRATKTCVENTCYKMFIRTQREYISERGCGCPTAMWPYQTECCKGDRCNK (disulfide 3-22, 17-39, 41-52, 53-58 (inferred)) [Cas, calciseptine]
L-type Ca2+ current density ([1]; 0 mV, Ctrl -8.45± 1.02): -3.87± 0.71 pA/pF | L-type Ca2+ current density ([1]; +20 mV, Ctrl -5.09± 0.81): -1.53± 0.56 pA/pF | L-type Ca2+ current density ([1]; -10 mV, Ctrl -8.20± 1.10): -4.24± 0.77 pA/pF | L-type Ca2+ current density ([1]; -20 mV, Ctrl -5.61± 0.91): -3.37± 0.54 pA/pF | L-type Ca2+ current density ([1]; -25 mV, Ctrl -3.96± 0.71): -2.46± 0.48 pA/pF | L-type Ca2+ current density ([1]; -30 mV, Ctrl -2.44± 0.47): -1.49± 0.38 pA/pF | L-type Ca2+ current density ([1]; -35 mV, Ctrl -1.18± 0.29): -0.90± 0.24 pA/pF | reduction of total ICaL ([1]; Wild-Type SAN myocytes, voltage clamp): around 45% | effect on Cav3.1 current [2]: failed to detect inhibitory effect; also recorded: had no effect | effect on Cav2.1 current [3]: failed to detect inhibitory effect; also recorded: had no effect
